Data reported in patent publication US5668144A, “1-azabicyclopheptane derivatives” (American Home Products Corporation, priority 1996, dated 1997).

Experiments:
[1] = system: scopolamine disrupted rat performance; assay: Eight arm radial maze, reversal of scopolamine disrupted rat performance; format: in vivo, Sprague-Dawley male rats; details: ip, test compound i.p., scopolamine HBr 0.3 mg/kg s.c., read-out: minimum effective dose (MED), reversal of scopolamine disrupted rat performance
Protocol: The compound of Example 3 was also tested in the eight arm radial maze test procedure in which Sprague-Dawley male rats at 85% of their free feeding weight are trained to obtain two food pellets from food cups placed at the ends of four of the eight arms radiating from a circular central area of the maze, in a five minute period. After training to a level of error (return to a previously entered arm is error) equal to or less than 2, the rats performance is disrupted with scopolamine HBr (0.3 mg/kg, s.c.) and test compound dosage (i.p.). The number of errors are then determined and compared with control receiving scopolamine alone.

muscarinic receptors = details: disclosed in earlier patents; cited from earlier work
[2] = quaternary ammonium group; cited from earlier work
[3] = target: T1, M1 acetylcholine receptors (Homo sapiens, UniProt P11229); assay: PI hydrolysis stimulation in CHO cells expressing M1 acetylcholine receptors (muscarinic m1 agonism); format: cell-based; details: exo versus endo azacycloheptane analog
T1 sequence (P11229 1-460): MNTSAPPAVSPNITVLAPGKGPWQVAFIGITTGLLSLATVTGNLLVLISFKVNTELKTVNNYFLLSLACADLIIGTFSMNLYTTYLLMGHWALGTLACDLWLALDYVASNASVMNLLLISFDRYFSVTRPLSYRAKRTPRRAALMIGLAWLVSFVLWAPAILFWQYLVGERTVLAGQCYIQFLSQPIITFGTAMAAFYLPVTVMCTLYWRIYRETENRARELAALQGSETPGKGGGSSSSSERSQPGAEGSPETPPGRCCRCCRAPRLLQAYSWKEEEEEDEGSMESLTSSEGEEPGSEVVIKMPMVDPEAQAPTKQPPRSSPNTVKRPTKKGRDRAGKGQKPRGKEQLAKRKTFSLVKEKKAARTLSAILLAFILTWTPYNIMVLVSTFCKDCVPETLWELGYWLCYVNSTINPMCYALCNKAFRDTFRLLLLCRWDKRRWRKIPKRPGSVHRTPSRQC

[4] = in vivo; cited from earlier work
[5] = system: patients with mild to moderate Alzheimer's Disease; details: cited from earlier work; for memory in patients (in words): mild to moderate Alzheimer's Disease
[6] = system: scopolamine treated animals; assay: Reversal of scopolamine hyperactivity, mouse swim tank test; format: in vivo, Male CFW mice; details: ip, scopolamine HBr 0.3 mg/kg, read-out: minimum effective dose (MED), reversal of hyperactivity of scopolamine treated animals
Protocol: The compound of Example 3, representative of the other compounds of this invention, was also tested in accordance with the procedure of Symons et al, Soc. Neuroscience Abstracts 12:2, 897 (1986) in which Male CFW mice, 25 to 35 grams in weight are given the test compound in suitable vehicle plus 0.3 mg/kg scopolamine. HBr in suitable vehicle, i.p.(3 groups of 12 animals each) or vehicle alone (1 group of 12 animals ) or vehicle plus scopolamine. HBr (1 group of 12 animals). The mice are placed in a swim tank, individually, containing 10 cm H2 O for a period of 5 minutes and the distance each animal swims is recorded.

m1 receptors = details: cited from earlier work

## CNC(=O)O[C@@H]1CN2CC[C@@H]1C2 (single isomer, unassigned) [Example 2, (+)-(exo)-Methylcarbamic acid 1-aza-bicyclo[2.2.1]hept-3-yl ester]
[1]
  minimal effective dose: 1 mg/kg

## CNC(=O)OC1CN2CCCC1C2 (stereo not drawn) [exo-1-azabicyclo[3.2.1]oct-6-yl-N-methylcarbamate]
Muscarinic receptors
  muscarinic activity (in words): muscarinic activity

## C[N+](C)(C)CCOC(N)=O [carbachol]
[2]
  ability to enter the CNS (in words): not able to enter the CNS

## CN(C)C(=O)OC1CC2CCCN(C2)C1 (stereo not drawn) [exo-1-azabicyclo[3.3.1]non-3-yl-N,N-dimethylcarbamate]
Muscarinic receptors
  muscarinic activity (in words): muscarinic activity

## CNC(=O)O[C@@H]1CN2CC[C@@H]1C2 (relative stereo) [Example 1, (exo)-Methylcarbamic acid 1-aza-bicyclo[2.2.1]hept-3-yl ester]
[3]
  muscarinic agonism (in words): enhanced muscarinic agonism

## CNC(=O)OC1CC2CCCN(C2)C1 (stereo not drawn) [exo-1-azabicyclo[3.3.1]non-3-yl-N-methylcarbamate]
Muscarinic receptors
  muscarinic activity (in words): muscarinic activity

## CNC(=O)O[C@@H]1CN2CC[C@H]1C2 (relative stereo) [endo azacycloheptane analog]
[3]
  muscarinic agonism (in words): not

## COC(=O)C1=CCCN(C)C1 [Arecoline]
[4]
  half-life (in words): short
[5]
  memory in patients (in words): memory improvement

## CNC(=O)O[C@@H]1CN2CC[C@@H]1C2 (single isomer, unassigned) [Example 3, (-)-(exo)-Methylcarbamic acid 1-aza-bicyclo[2.2.1]hept-3-yl ester]
[6]
  minimal effective dose: 30 mg/kg

## Nc1c2c(nc3ccccc13)CCCC2 [tacrine]
[5]; especially at the higher doses where it is most effective
  adverse side effects (in words): adverse side effects especially at the higher doses
[5]
  memory in patients (in words): improvement in memory

## C[C@@H]1O[C@H](C[N+](C)(C)C)C[C@H]1O [muscarine]
m1 receptors
  activation of m1 receptors (in words): able to fully activate m1 receptors
[2]
  ability to enter the CNS (in words): not able to enter the CNS
